The text below walks through data of patent US10370370B2, “Aminobenzisoxazole compounds as agonists of α7-nicotinic acetylcholine receptors” (FORUM PHARMACEUTICALS, INC., priority 2015, dated 2019).

Counter-ions that a name gives are not always drawn.

The target in assay [1] is human α7 nAChRs transiently expressed in Xenopus laevis oocytes (Homo sapiens (Human), UniProt P36544). Kind of assay: Oocyte Electrophysiology Screen (two-electrode voltage-clamp, HiQScreen). In kind it is cell-based. Conditions: test compound at 0.01 mM, response as percentage of that evoked by 0.2 mM ACh; hydrochloride. As to the method:
Oocyte Electrophysiology Screen (% ACh @ 10 μM Oocyte)
The Oocyte Electrophysiology Screen studies were performed under contract by HiQScreen Geneva, Switzerland. All experiments were carried out at human α7 nAChRs transiently expressed in Xenopus laevis oocytes using the method of cDNA expression. Currents evoked by acetylcholine or other agonist ligands were recorded using the standard two-electrode voltage-clamp configuration (TEVC). X. laevis oocytes were prepared and injected using standard procedures. Briefly, ovaries were harvested from X. laevis females that were deeply anesthetized and pithed following the animal rights rule from the Geneva canton. A small piece of ovary was isolated for immediate preparation while the remaining part was placed at 4° C. in a sterile Barth solution containing in mM: NaCl 88, KCl 1, NaHCO3 2.4, HEPES 10, MgSO4.7H2O 0.82, Ca(NO3)2.4H2O 0.33, CaCl2.6H2O 0.41, at pH 7.4, and supplemented with 20 μg/mL of kanamycin, 100 unit/mL penicillin and 100 μg/mL streptomycin. On the second day following dissociation, oocytes were injected with 2 ng of cDNA per oocyte containing the gene encoding human α7 nicotinic acetylcholine receptor subunits using an automated injector (Hogg et al., 2008). All recordings were performed at 18° C. and cells were superfused with OR2 medium containing in mM: NaCl 82.5, KCl 2.5, HEPES 5, CaCl2.2H2O 2.5, pH 7.4. Cells were held at −80 mV. Data were filtered at 10 Hz, captured at 100 Hz and analyzed using proprietary data acquisition and analysis software running under Matlab (Mathworks Inc.).
Experimental Protocol and Analysis
After establishing a baseline transmembrane current, acetylcholine (ACh) was applied for 5 seconds at a concentration of 0.2 mM to establish a control ACh-evoked current response. Following a wash period of 90 s in OR2 medium (free of ACh), cells were then exposed for 30 s to the test compound applied at 0.01 mM. The same reference ACh test pulse was immediately given at the end of the compound exposure and again after 90 s of recovery in OR2 Medium (free of ACh or test compound). All data were determined in triplicate. The response evoked by the test compound was expressed as a percentage of that evoked by ACh: Response (% ACh)=100×(Itest/IACh) where Itest is the peak inward current measured during exposure to 0.01 mM of test compound and IACh is the peak inward current measured in the presence of ACh.
Results are provided in Table 2 (reported as % ACh @ 10 μM Oocyte).

A further assay concerns the target human α7 nAChR (Homo sapiens (Human), UniProt P36544). In kind it is binding. Conditions: above described assay provided by Cerep.
Assay [2] concerns the target recombinantly expressed human α7-nAChR (Homo sapiens (Human), UniProt P36544). Conditions: [125I] α-BTX radioligand, read-out: Ki (lit); cited from earlier work.
Assay [3] concerns the target human 5-HT3 serotonin receptors (Homo sapiens (Human), UniProt P46098). Kind of assay: [3H]BRL 43694 competition binding (Cerep). Conditions: CHO cell membranes expressing human 5-HT3 receptors.

Chain of human α7 nAChRs transiently expressed in Xenopus laevis oocytes (P36544 23-502 limits assumed): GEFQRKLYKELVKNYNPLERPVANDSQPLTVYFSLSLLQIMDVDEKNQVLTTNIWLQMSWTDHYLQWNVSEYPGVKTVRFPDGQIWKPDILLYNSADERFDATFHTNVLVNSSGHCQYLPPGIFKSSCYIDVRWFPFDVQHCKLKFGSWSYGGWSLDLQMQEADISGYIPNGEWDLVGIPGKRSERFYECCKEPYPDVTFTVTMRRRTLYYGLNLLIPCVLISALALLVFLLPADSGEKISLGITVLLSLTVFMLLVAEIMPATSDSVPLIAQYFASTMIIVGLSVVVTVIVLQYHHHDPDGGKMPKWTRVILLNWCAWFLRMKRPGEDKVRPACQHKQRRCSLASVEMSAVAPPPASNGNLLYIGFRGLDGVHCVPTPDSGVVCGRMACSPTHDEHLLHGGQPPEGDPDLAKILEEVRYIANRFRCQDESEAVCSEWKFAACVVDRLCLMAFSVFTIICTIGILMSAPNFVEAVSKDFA
Chain of recombinantly expressed human α7-nAChR (P36544 23-502 limits assumed): as above
Chain of human α7 nAChR (P36544 23-502 limits assumed): as above
Chain of human 5-HT3 serotonin receptors (P46098 24-478): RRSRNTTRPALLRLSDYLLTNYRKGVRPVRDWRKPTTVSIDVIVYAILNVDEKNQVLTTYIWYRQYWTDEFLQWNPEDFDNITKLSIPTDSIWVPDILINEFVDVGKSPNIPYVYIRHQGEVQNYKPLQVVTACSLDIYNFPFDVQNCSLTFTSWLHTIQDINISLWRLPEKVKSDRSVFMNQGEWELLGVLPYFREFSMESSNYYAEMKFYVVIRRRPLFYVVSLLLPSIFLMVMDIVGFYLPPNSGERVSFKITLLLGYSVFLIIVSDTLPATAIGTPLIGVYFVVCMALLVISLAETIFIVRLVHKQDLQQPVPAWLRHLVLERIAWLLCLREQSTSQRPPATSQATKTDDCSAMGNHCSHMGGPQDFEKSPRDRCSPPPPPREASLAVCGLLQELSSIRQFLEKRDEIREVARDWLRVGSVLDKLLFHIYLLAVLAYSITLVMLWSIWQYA

Consider `c1ccc2c(NC3CN4CCC3CC4)noc2c1` (single isomer, unassigned; enantiomer1) [Compound 1-P1], for which the “% ACh @ 10 μM Oocyte” value in assay [1] is listed as 483 % ACh.
For `Clc1cccc2c(NC3CN4CCC3CC4)noc12` (single isomer, unassigned; enantiomer1) [Compound 2-P1, 7-chloro-N-(quinuclidin-3-yl)benzo[d]isoxazol-3-amine-enantiomer1 hydrochloride], the “% ACh @ 10 μM Oocyte” value in assay [1] was found to be 418 % ACh.
On to `Clc1ccc2c(NC3CN4CCC3CC4)noc2c1` (single isomer, unassigned; enantiomer1) [Compound 3-P1, 6-chloro-N-(quinuclidin-3-yl)benzo[d]isoxazol-3-amine-enantiomer1 hydrochloride], for which the “% ACh @ 10 μM Oocyte” value in assay [1] was 465 % ACh.
For the molecule `Clc1ccc2onc(NC3CN4CCC3CC4)c2c1` (single isomer, unassigned; enantiomer1) [Compound 4-P1, 5-chloro-N-(quinuclidin-3-yl)benzo[d]isoxazol-3-amine-enantiomer1 hydrochloride], the “% ACh @ 10 μM Oocyte” value in assay [1] was determined as 326 % ACh.
`Cc1ccc2c(NC3CN4CCC3CC4)noc2c1` (single isomer, unassigned; enantiomer1) [Compound 5-P1, 6-methyl-N-(quinuclidin-3-yl)benzo[d]isoxazol-3-amine-enantiomer1 hydrochloride]: in assay [1], the “% ACh @ 10 μM Oocyte” value is 548 % ACh.
Take `c1cc2c(NC3CN4CCC3CC4)noc2cc1C1CC1` (single isomer, unassigned; enantiomer1) [Compound 6-P1, 6-cyclopropyl-N-(quinuclidin-3-yl)benzo[d]isoxazol-3-amine-enantiomer1 hydrochloride]: the “% ACh @ 10 μM Oocyte” value in assay [1] worked out at 157 % ACh.
Turning to `COc1ccc2c(NC3CN4CCC3CC4)noc2c1` (single isomer, unassigned; enantiomer1) [Compound 7-P1, 6-methoxy-N-(quinuclidin-3-yl)benzo[d]isoxazol-3-amine-enantiomer1 hydrochloride], the “% ACh @ 10 μM Oocyte” value in assay [1] worked out at 326 % ACh.
The same measure, in the same setting: to `FC(F)(F)c1ccc2c(NC3CN4CCC3CC4)noc2c1` (single isomer, unassigned; enantiomer1) [Compound 8-P1, N-(quinuclidin-3-yl)-6-(trifluoromethyl)benzo[d]isoxazol-3-amine-enantiomer1 hydrochloride] belongs 26 % ACh; to `c1ccc2c(NC3CN4CCC3CC4)noc2c1` (single isomer, unassigned; enantiomer2) [Compound 1-P2, N-(quinuclidin-3-yl)benzo[d]isoxazol-3-amine-enantiomer2 hydrochloride], 206 % ACh; to `Clc1cccc2c(NC3CN4CCC3CC4)noc12` (single isomer, unassigned; enantiomer2) [Compound 2-P2, 7-chloro-N-(quinuclidin-3-yl)benzo[d]isoxazol-3-amine-enantiomer2 hydrochloride], 363 % ACh.
Take `Clc1ccc2c(NC3CN4CCC3CC4)noc2c1` (single isomer, unassigned; enantiomer2) [Compound 3-P2, 6-chloro-N-(quinuclidin-3-yl)benzo[d]isoxazol-3-amine-enantiomer2 hydrochloride]: the “% ACh @ 10 μM Oocyte” value in assay [1] was found to be 379 % ACh.
In the case of `Clc1ccc2onc(NC3CN4CCC3CC4)c2c1` (single isomer, unassigned; enantiomer2) [Compound 4-P2, 5-chloro-N-(quinuclidin-3-yl)benzo[d]isoxazol-3-amine-enantiomer2 hydrochloride], in assay [1], the “% ACh @ 10 μM Oocyte” value came out at 17 % ACh.
As to `Cc1ccc2c(NC3CN4CCC3CC4)noc2c1` (single isomer, unassigned; enantiomer2) [Compound 5-P2, 6-methyl-N-(quinuclidin-3-yl)benzo[d]isoxazol-3-amine-enantiomer2 hydrochloride], the “% ACh @ 10 μM Oocyte” value in assay [1] was 645 % ACh.
As to `c1cc2c(NC3CN4CCC3CC4)noc2cc1C1CC1` (single isomer, unassigned; enantiomer2) [Compound 6-P2, 6-cyclopropyl-N-(quinuclidin-3-yl)benzo[d]isoxazol-3-amine-enantiomer2 hydrochloride], the “% ACh @ 10 μM Oocyte” value in assay [1] is given as 355 % ACh.
Take `COc1ccc2c(NC3CN4CCC3CC4)noc2c1` (single isomer, unassigned; enantiomer2) [Compound 7-P2, 6-methoxy-N-(quinuclidin-3-yl)benzo[d]isoxazol-3-amine-enantiomer2 hydrochloride]: in assay [1], the “% ACh @ 10 μM Oocyte” value turned out to be 427 % ACh.
Still for that read-out and setting: for `FC(F)(F)c1ccc2c(NC3CN4CCC3CC4)noc2c1` (single isomer, unassigned; enantiomer2) [Compound 8-P2, N-(quinuclidin-3-yl)-6-(trifluoromethyl)benzo[d]isoxazol-3-amine-enantiomer2 hydrochloride] the value was 221 % ACh.
By Ki is commonly meant the dissociation constant of the complex between target and ligand, obtained from inhibition or displacement. For the molecule `Cc1ccc(-c2ccc(OC3CN4CCC3CC4)cn2)cc1` (stereo not shown) [AQW051], the Ki at human α7 nAChR was 255 nM; in assay [2] it was 28 nM.
In assay [3], `Cc1c(Cl)ccc2c(N[C@H]3CN4CCC3CC4)noc12` [Compound (R)-23, (R)-6-chloro-7-methyl-N-(quinuclidin-3-yl)benzo[d]isoxazol-3-amine hydrochloride] yielded an inhibitory constant (Ki) of 190 nM.
